Assay results reported in PMC7217877, “N-AS-triggered SPMs are direct regulators of microglia in a model of Alzheimer’s disease” (Nature Communications, 2020).
Where a chain is given by its changes, count along the chain named. Where “and” joins values, the source holds several entries; their conditions need not be identical. Equal values may be shown once.

Experiments:
Experiment in all cases: in vitro [14C] acetylation assay of purified COX2
Type in all cases: biochemical
Settings in all cases: replicates, listed as C14 N-AS
COX2 N181A = target: T1, COX2 N181A (Homo sapiens, UniProt P35354, N181A)
T1 construct: His (N); made in house
T1 sequence (P35354 18-604 N181A): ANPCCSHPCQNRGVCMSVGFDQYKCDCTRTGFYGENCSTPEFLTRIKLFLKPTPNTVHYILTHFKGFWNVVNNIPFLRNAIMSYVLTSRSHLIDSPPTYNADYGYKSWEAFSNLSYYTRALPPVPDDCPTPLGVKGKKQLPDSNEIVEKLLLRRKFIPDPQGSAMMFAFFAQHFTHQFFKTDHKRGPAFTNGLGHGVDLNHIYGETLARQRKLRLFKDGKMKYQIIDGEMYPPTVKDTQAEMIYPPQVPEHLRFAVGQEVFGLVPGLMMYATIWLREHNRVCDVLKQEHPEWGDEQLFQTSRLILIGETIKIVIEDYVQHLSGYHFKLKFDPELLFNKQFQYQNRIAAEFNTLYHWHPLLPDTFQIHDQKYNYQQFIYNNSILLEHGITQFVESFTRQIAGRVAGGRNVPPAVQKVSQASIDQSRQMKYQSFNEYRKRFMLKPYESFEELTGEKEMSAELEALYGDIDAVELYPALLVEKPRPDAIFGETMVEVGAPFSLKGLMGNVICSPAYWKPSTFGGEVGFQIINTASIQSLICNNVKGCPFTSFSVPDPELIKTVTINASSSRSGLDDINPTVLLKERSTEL
Source text: (§1) Single point mutations in SphK1 (R56A, R57A, R24A, R185A, D178A, and F192A) and COX2 (S565A, N181A, T564A, and S567A) were generated using the In-Fusion Cloning Kits (Clontech) and ORF cDNA expression plasmids of human SphK1 and COX2 gene (Sino Biological Inc, HG15679-NH and HG12036-NH), according to the manufacturer’s instructions. The forward and reverse primers described in Supplementary Table 4. The SphK1 WT, SphK1 mutants, COX2 WT, and COX2 mutant plasmids were transformed in the One shot TOP 10 competent cell (Invitrogen). The bacteria were grown in Luria-Bertani (LB, Invitrogen) plates supplemented with 50 μg ml^−1 kanamycin (Sigma-Aldrich) at 37 °C. The bacterial cell pellets were resuspended in lysis buffer containing 20 mM sodium phosphate (GE Healthcare), 500 mM NaCl (GE Healthcare), 20 mM imidazole (pH 7.4) (GE Healthcare), 0.2 mg ml^−1 lysozyme (Sigma-Aldrich), 20 μg ml^−1 DNase I (Roche), 1 mM MgCl2 (Sigma-Aldrich), and 1 mM PMSF (Sigma-Aldrich) before being lysed by sonication and clarified by centrifugation at 15,493×g for 10 min. Proteins were purified from the soluble fraction using His-Spin Trap columns (GE Healthcare) and the binding and acetylation assays were performed.
(§2) Acetylation assays were performed according to previously described procedures with minor modifications. […] To confirm the N-AS-mediated COX2 acetylation, 10 μg COX2 (WT or mutants) was used incubated with [^14C] N-AS (2 μCi, ARC UK Ltd, ARC-1024) at 37 °C for 2 h. [^14C] aspirin (2 μCi, ARC UK Ltd, ARC-0473) was conducted as the positive control. The reactions were terminated by placing the reaction tubes in ice for 5 min. To evaluate in vivo neuronal and microglial COX2 acetylation, 10 μCi [^14C] N-AS was orally administrated to 9-months-old WT and APP/PS1 mice. After 1 h, neuron and microglia were isolated and sonicated in culture media. […] Acetylated COX2 proteins bound to the beads were analyzed using a Tri-Carb 3110TR liquid scintillation counter (Perkin-Elmer).

COX2 S565A = target: T2, COX2 S565A (Homo sapiens, UniProt P35354, S565A)
T2 construct: His (N); made in house
T2 sequence (P35354 18-604 S565A): T1 sequence (P35354 18-604 N181A) with A164N, S548A
Source text: as §1, §2

COX2 S567A = target: T3, COX2 S567A (Homo sapiens, UniProt P35354, S567A)
T3 construct: His (N); made in house
T3 sequence (P35354 18-604 S567A): T1 sequence (P35354 18-604 N181A) with A164N, S550A
Source text: as §1, §2

Q: With `CCCCCCCCCCCCC/C=C/[C@@H](O)[C@H](CO)NC(C)=O` [N-AS, N-((2S,3R,E)-1,3-Dihydroxyoctadec-4-en-2-yl)acetamide] as the compound, how does the “C14 radioactivity of COX2, acetylation assay (Fig 1h)” value (“C14 radioactivity of COX2” for short) (COX2 N181A) read?
A: 141977 and 143404 and 142984 and 143554 and 143318 and 142968

Q: And the “C14 radioactivity of COX2” value (COX2 S565A)?
A: 117550 and 118051 and 117876 and 111509 and 116124 and 117620

Q: And the “C14 radioactivity of COX2” value (COX2 S567A)?
A: 185354 and 188203 and 187860 and 187573 and 187463 and 187847
